# Laboratory results from patent publication US20150072416A1, “METABOLITE FOR IMPROVING PRODUCTION, MAINTENANCE AND PROLIFERATION OF PLURIPOTENT STEM CELLS, COMPOSITION COMPRISING THE SAME, AND METHOD OF CULTURING PLURIPOTENT STEM CELL USING THE SAME” (KOREA RESEARCH INSTITUTE OF BIOSCIENCE AND BIOTENOLOGY, priority 2012, published 2015).
# Test system: p53, p21 and p16
# Experiment: Expression of senescence-associated signaling factors (immunostaining, Western blot, real-time PCR)
# Assay type: cell-based, human
# Procedure: Total RNA was isolated from produced cells using an RNeasy Mini kit (Qiagen, Valencia, Calif.) and reverse-transcribed using a SuperScript First-strand synthesis system kit (Invitrogen) according to the manufacturer's instruction. Then, semi-quantitative RT-PCR was performed using a platinum Tag SuperMix kit (Invitrogen) under the following conditions: 94° C. for 3 minutes, and then 25-30 cycles, each consisting of 94° C. for 30 sec, 60° C. for 30 sec and 72° C. for 30 sec, followed by extension at 72° C. for 10 minutes.
# For immunostaining, cells were seeded on Matrigel-coated 4-well Lab-Tek chamber slides (Nunc, Naperville, Ill.) and cultured for 5 days under the indicated conditions. […]
# Cells were lysed with RIPA buffer (containing 50 mM Tris, pH 8.0, 150 mM NaCl, 1% NP-40, 0.1% SDS, 0.5% deoxycholic acid, 1 mM PMSF) and mixed with a protease inhibitor (Roche Applied Science, Indianapolis, Ind.) on ice for 15 minutes, followed by centrifugation at 20,000×g at 4° C. for 10 minutes. The supernatant was re-centrifuged for 10 minutes, and the protein concentration was measured using a BCA protein assay kit (Pierce, Rockford, Ill.). […] The density of the bands was analyzed using Image Gauge software (Fuji Photo Film GMBH, D) and normalized to the bands of the loading control (β-actin). […]
smiles,measurement,setting,value
NC(=O)c1cccnc1 [nicotinamide],"mRNA and protein expression levels of p53, p21 and p16","1 mM, reprogramming process",significantly decreased
same,"inhibition of expression of senescence factors p53, p27, p21 and p16",high concentration (20 mM),did not appear
